Active and inactive are the calls of the source. The rule behind the calls is not given here.
Columns and labels:
SH-SY5Y [1] = assay: Induction of amyloid beta (1 to 40) secretion in human SH-SY5Y cells incubated for overnight by ELISA; format: functional, cell-based
SH-SY5Y [2] = assay: Induction of amyloid beta (1 to 42) secretion in human SH-SY5Y cells incubated for overnight by ELISA; format: functional, cell-based
H4 [3] = assay: Induction of amyloid beta (1 to 40) secretion in human H4 cells overexpressing APP incubated for overnight by ELISA; format: functional, cell-based
H4 [4] = assay: Induction of amyloid beta (1 to 42) secretion in human H4 cells overexpressing APP incubated for overnight by ELISA; format: functional, cell-based
Homo sapiens = species: Homo sapiens; assay: Inhibition of monoamine oxidase (unknown origin)

inhibition (Homo sapiens)	SMILES	Activity (SH-SY5Y [1])	Activity (SH-SY5Y [2])	Activity (H4 [3])	Activity (H4 [4])
inactive	CO/C(=C\c1ccc(O)c(Cl)c1)C(=O)O	inactive	inactive	Dose-dependent effect	Dose-dependent effect
inactive	CO/C(=C\c1cc(Cl)c(O)c(Cl)c1)C(=O)O	inactive	inactive	Dose-dependent effect	Dose-dependent effect

Source: ChEMBL document CHEMBL4619732, “Two new secondary metabolites, saccharochlorines A and B, from a marine bacterium Saccharomonospora sp. KCTC-19160” (Bioorg Med Chem Lett, 2020)
